From patent publication US20260285850A1, “SUBSTITUTED OXAZOLIDINONES AND IMIDAZOLINONES AS HERBICIDES” (FMC CORPORATION, priority 2023, published 2026)

Key:
Assay type in all cases: in vivo
[1] = tested on: ragweed (common ragweed, Ambrosia artemisiifolia); experiment: Test A preemergence soil spray, visual injury rating 0-100; details: 10 days
Summary of the method: (§1)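 Visual injury, scored 0-100 (100 = complete control) against untreated plants, 10 days after greenhouse treatment. Test chemicals in surfactant-containing non-phytotoxic solvent were applied in loam soil and sand, as a preemergence soil spray on seeds or postemergence to plants at the one- to two-leaf stage.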

soybean (Glycine max) [2] = experiment: as above; details: 10 days
Summary of the method: as §1

[3] = tested on: green foxtail (Setaria viridis); experiment: as above; details: 10 days
Summary of the method: as §1

[4] = tested on: oat, wild (wild oat, Avena fatua); experiment: as above; details: 10 days
Summary of the method: as §1

[5] = tested on: blackgrass (Alopecurus myosuroides); experiment: as above; details: 10 days
Summary of the method: as §1

[6] = tested on: wheat (Triticum aestivum); experiment: as above; details: 10 days
Summary of the method: as §1

[7] = tested on: barnyardgrass (Echinochloa crus-galli); experiment: as above; details: 10 days
Summary of the method: as §1

[8] = tested on: ryegrass, Italian (italian ryegrass, Lolium multiflorum); experiment: as above; details: 10 days
Summary of the method: as §1

[9] = tested on: palmer (palmer amaranth, palmer pigweed, Amaranthus palmeri); experiment: as above; details: 10 days
Summary of the method: as §1

corn (Zea mays) [10] = experiment: as above; details: 10 days
Summary of the method: as §1

kochia (Bassia scoparia) [11] = experiment: as above; details: 10 days
Summary of the method: as §1

rice (Oryza sativa) = experiment: Test B flooded paddy test, visual plant response rating 0-100; details: 250 g ai/ha, Flood, applied to paddy water, evaluated after 13 days
Experimental: (§2) Plant species in the flooded paddy test selected from barnyardgrass (Echinochloa crusgalli), ducksalad (Heteranthera limosa), rice (Oryza sativa), and sedge, umbrella (small-flower umbrella sedge, Cyperus difformis) were grown to the 2-leaf stage for testing. At time of treatment, test pots were flooded to 3 cm above the soil surface, treated by application of test compounds directly to the paddy water, and then maintained at that water depth for the duration of the test. Treated plants and controls were maintained in a greenhouse for 13 days, after which time all species were compared to controls and visually evaluated. […] A dash (-) response means no test result.

[12] = tested on: barnyardgrass (Echinochloa crusgalli); experiment: as above; details: 250 g ai/ha, Flood, applied to paddy water, evaluated after 13 days
Experimental: as §2

[13] = tested on: sedge, umbrella (small-flower umbrella sedge, Cyperus difformis); experiment: as above; details: 250 g ai/ha, Flood, applied to paddy water, evaluated after 13 days
Experimental: as §2

[14] = tested on: ducksalad (Heteranthera limosa); experiment: as above; details: 250 g ai/ha, Flood, applied to paddy water, evaluated after 13 days
Experimental: as §2

[15] = tested on: ragweed (common ragweed, Ambrosia artemisiifolia); experiment: Test A postemergence application, visual injury rating 0-100
Source text: (§3) Seeds of plant species selected from barnyardgrass (Echinochloa crus-galli), blackgrass (Alopecurus myosuroides), corn (Zea mays), foxtail, giant (giant foxtail, Setaria faberi), green foxtail (Setaria viridis), goosegrass (Eleusine indica), kochia (Bassia scoparia), oat, wild (wild oat, Avena fatua), palmer (palmer amaranth, palmer pigweed, Amaranthus palmeri), ragweed (common ragweed, Ambrosia artemisiifolia), ryegrass, Italian (italian ryegrass, Lolium multiflorum), soybean (Glycine max) and wheat (Triticum aestivum) were planted into a blend of loam soil and sand and treated preemergence with a directed soil spray using test chemicals formulated in a non-phytotoxic solvent mixture which included a surfactant.
(§4) At the same time, plants selected from these crops and weed species and also galium (catchweed bedstraw, Galium aparine) and horseweed (Erigeron canadensis) were planted in pots containing the same blend of loam soil and sand and treated with postemergence applications of test chemicals formulated in the same manner. Plants ranged in height from 2 to 10 cm and were in the one- to two-leaf stage for the postemergence treatment. Treated plants and untreated controls were maintained in a greenhouse for 10 days, after which time all treated plants were compared to untreated controls and visually evaluated for injury. Plant response ratings, summarized in Table A, are based on a 0 to 100 scale where 0 is no effect and 100 is complete control. A dash (-) response means no test result.

soybean (Glycine max) [16] = experiment: as above
Source text: as §3, §4

[17] = tested on: green foxtail (Setaria viridis); experiment: as above
Source text: as §3, §4

[18] = tested on: oat, wild (wild oat, Avena fatua); experiment: as above
Source text: as §3, §4

[19] = tested on: blackgrass (Alopecurus myosuroides); experiment: as above
Source text: as §3, §4

[20] = tested on: wheat (Triticum aestivum); experiment: as above
Source text: as §3, §4

[21] = tested on: horseweed (Erigeron canadensis); experiment: as above
Source text: as §3, §4

[22] = tested on: barnyardgrass (Echinochloa crus-galli); experiment: as above
Source text: as §3, §4

[23] = tested on: ryegrass, Italian (italian ryegrass, Lolium multiflorum); experiment: as above
Source text: as §3, §4

[24] = tested on: palmer (palmer amaranth, palmer pigweed, Amaranthus palmeri); experiment: as above
Source text: as §3, §4

corn (Zea mays) [25] = experiment: as above
Source text: as §3, §4

kochia (Bassia scoparia) [26] = experiment: as above
Source text: as §3, §4

[27] = 62 g ai/ha, 0 = no effect, 100 = complete control
[28] = 62 g ai/ha, postemergence, 10 days, 0 = no effect, 100 = complete control
[29] = Postemergence, 16 g ai/ha, greenhouse 10 days, 0 no effect, 100 complete control

CC1(C(=O)NC2CC=C(C(=O)OCC3CC3)C2)CN(c2cc(F)cc(Cl)c2)C(=O)O1 (centres unmarked) [Compound 144]
Ragweed plant response rating ([1]; 16 g ai/ha, 0 to 100 scale): 0
Ragweed plant response rating (0-100) [1, 27]: 0
Soybean plant response rating (soybean (Glycine max) [2]; 16 g ai/ha, 0 to 100 scale): 0
Soybean plant response rating (0-100) (soybean (Glycine max) [2]; [27]): 10
Foxtail, Green plant response rating ([3]; 16 g ai/ha, 0 to 100 scale): 0
Foxtail, Green plant response rating (0-100) [3, 27]: 90
Oat, Wild plant response rating ([4]; 16 g ai/ha, 0 to 100 scale): 0
Oat, Wild plant response rating (0-100) [4, 27]: 20
Blackgrass plant response rating ([5]; 16 g ai/ha, 0 to 100 scale): 0
Blackgrass plant response rating (0-100) [5, 27]: 0
Wheat plant response rating ([6]; 16 g ai/ha, 0 to 100 scale): 0
Wheat plant response rating (0-100) [6, 27]: 70
Barnyardgrass plant response rating ([7]; 16 g ai/ha, 0 to 100 scale): 0
Barnyardgrass plant response rating (0-100) [7, 27]: 100
Ryegrass, Italian plant response rating ([8]; 16 g ai/ha, 0 to 100 scale): 10
Ryegrass, Italian plant response rating (0-100) [8, 27]: 60
Pigweed, Palmer plant response rating ([9]; 16 g ai/ha, 0 to 100 scale): 50
Pigweed, Palmer plant response rating (0-100) [9, 27]: 80
Corn plant response rating (corn (Zea mays) [10]; 16 g ai/ha, 0 to 100 scale): 0
Corn plant response rating (0-100) (corn (Zea mays) [10]; [27]): 50
Kochia plant response rating (kochia (Bassia scoparia) [11]; 16 g ai/ha, 0 to 100 scale): 0
Kochia plant response rating (0-100) (kochia (Bassia scoparia) [11]; [27]): 40
Plant response rating, Rice (0 to 100 scale, 0 is no effect and 100 is complete control) (rice (Oryza sativa)): 50
Plant response rating, Barnyardgrass (0 to 100 scale, 0 is no effect and 100 is complete control) [12]: 95
Plant response rating, Sedge, Umbrella (0 to 100 scale, 0 is no effect and 100 is complete control) [13]: 100
Plant response rating, Ducksalad (0 to 100 scale, 0 is no effect and 100 is complete control) [14]: 80
Ragweed plant response rating (0-100) [15, 28]: 50
Ragweed plant response rating (0 to 100 scale) [15, 29]: 20
Soybean plant response rating (0-100) (soybean (Glycine max) [16]; [28]): 80
Soybean plant response rating (0 to 100 scale) (soybean (Glycine max) [16]; [29]): 80
Foxtail, Green plant response rating (0-100) [17, 28]: 90
Foxtail, Green plant response rating (0 to 100 scale) [17, 29]: 90
Oat, Wild plant response rating (0-100) [18, 28]: 40
Oat, Wild plant response rating (0 to 100 scale) [18, 29]: 20
Blackgrass plant response rating (0-100) [19, 28]: 100
Blackgrass plant response rating (0 to 100 scale) [19, 29]: 70
Wheat plant response rating (0-100) [20, 28]: 90
Wheat plant response rating (0 to 100 scale) [20, 29]: 60
Horseweed plant response rating (0-100) [21, 28]: 80
Horseweed plant response rating (0 to 100 scale) [21, 29]: 50
Barnyardgrass plant response rating (0-100) [22, 28]: 100
Barnyardgrass plant response rating (0 to 100 scale) [22, 29]: 90
Ryegrass, Italian plant response rating (0-100) [23, 28]: 90
Ryegrass, Italian plant response rating (0 to 100 scale) [23, 29]: 60
Pigweed, Palmer plant response rating (0-100) [24, 28]: 90
Pigweed, Palmer plant response rating (0 to 100 scale) [24, 29]: 70
Corn plant response rating (0-100) (corn (Zea mays) [25]; [28]): 100
Corn plant response rating (0 to 100 scale) (corn (Zea mays) [25]; [29]): 100
Kochia plant response rating (0-100) (kochia (Bassia scoparia) [26]; [28]): 80
Kochia plant response rating (0 to 100 scale) (kochia (Bassia scoparia) [26]; [29]): 80
